# Tested on: PKC
# Test: PKC activity inhibition
# Format: biochemical
compound,measurement,value
"O=S(=O)(NCCNCC=Cc1ccc(Br)cc1)c1cccc2cnccc12 [H-89, N-[2-(p-bromocinnamylamino)ethyl]-5-isoquinolinesulfonamide]",IC50,31 µM

# — US6949565B2, “Protein kinase inhibitors” (Develogen Israel Ltd., priority 2000, dated 2005)
